Measurements as given in ChEMBL document CHEMBL4406843, “β-Amino acid derivatives as mitochondrial complex III inhibitors of L. donovani: A promising chemotype targeting visceral leishmaniasis” (Eur J Med Chem, 2019).
Active and inactive are the calls of the source. No cut-off for these calls is given here.

Experiments:
Leishmania donovani [1] = assay: Induction of ROS generation in Leishmania donovani promastigotes at 50 uM after 6 hrs by H2DCFDA probe based flow cytometry (reference value: 1.97%); assay type: functional
Leishmania donovani [2] = assay: Antileishmanial activity against Leishmania donovani promastigotes infected in BALB/c mouse assessed as inhibition in parasite burden in spleen at 200 mg/kg, ip administered for 7 days starting at 15 days post-infection and measured after 1 week post last dose Giemsa staining-based assay relative to control; assay type: functional
[3] = Toxicity in golden hamster infected with Leishmania donovani amastigotes assessed as reduction in serum ALT level at 50 mg/kg , ip and measured after 10 weeks post infection (reference value: 216 U/L); assay type: organism-based, Mesocricetus auratus; conditions: in vivo, 1680 h
Leishmania donovani [4] = assay: Antileishmanial activity against Leishmania donovani MHOM/IN/80/Dd8 amastigotes harboring luciferase reporter gene infected in mouse J774 cells after 48 hrs by Giemsa staining-based microscopic assay; assay type: functional, organism-based; conditions: MHOM/IN/80/Dd8, J774, 48 h
Leishmania donovani [5] = assay: Antileishmanial activity against Leishmania donovani promastigotes infected in BALB/c mouse assessed as inhibition in parasite burden in spleen at 100 mg/kg, ip administered for 7 days starting at 15 days post-infection and measured after 1 week post last dose Giemsa staining-based assay relative to control; assay type: functional
[6] = Cmax in BALB/c mouse at 50 mg/kg, ip by HPLC analysis; assay type: ADME, organism-based; set-up: dose 50 mg/kg, route intraperitoneal; conditions: in vivo
[7] = Cytotoxicity against African green monkey Vero cells assessed as cell viability at 50 uM by MTT assay relative to control; assay type: cell-based; conditions: chlorocebus sabaeus, read-out: Activity
[8] = Toxicity in golden hamster infected with Leishmania donovani amastigotes assessed as effect on body weight at 12.5 to 200 mg/kg, ip administered on alternative days for 4 weeks starting at 4 weeks post-infection; assay type: organism-based, Mesocricetus auratus; conditions: in vivo, 672 h
[9] = Toxicity in BALB/c mouse infected with Leishmania donovani promastigotes assessed as serum ALT level at 50 mg/kg , ip measured after 3 to 7 weeks (rvb = 31 IU/L); assay type: organism-based; conditions: in vivo
Mus musculus = assay: Immunostimulatory activity in BALB/c mouse infected with Leishmania donovani promastigotes assessed as induction of TNF-alpha cytokine production at 50 mg/kg administered for 5 days starting at 15 days post infection and measured after 3 to 7 weeks by ELISA; assay type: functional, organism-based
Leishmania donovani [10] = assay: Induction of mitochondrial dysfunction in Leishmania donovani promastigotes assessed as reduction in mitochondrial membrane potential at 50 uM after 3 hrs by JC-1 staining-based flow cytometric analysis (reference value: 7.73%); assay type: functional; set-up: scale not given: the % may be the effect or the level left
[11] = Selectivity index, ratio of CC50 for African green monkey Vero cells to IC50 for antileishmanial activity against Leishmania donovani MHOM/IN/80/Dd8 amastigotes harboring luciferase reporter gene; assay type: toxicity; conditions: read-out: Ratio CC50/IC50
[12] = Half life in mouse liver microsomes after 1 hr in presence of NADPH by UPLC analysis; assay type: ADME, Microsome
[13] = Tmax in BALB/c mouse at 50 mg/kg, ip by HPLC analysis; assay type: ADME, organism-based; conditions: in vivo
Leishmania donovani [14] = assay: Induction of mitochondrial dysfunction in Leishmania donovani promastigotes assessed as reduction in mitochondrial membrane potential at 50 uM after 6 hrs by JC-1 staining-based flow cytometric analysis (reference value: 7.73%); assay type: functional; set-up: scale not given: the % may be the effect or the level left
Leishmania donovani [15] = assay: Induction of mitochondrial membrane depolarization in Leishmania donovani promastigotes assessed as swelling of mitochondria at 50 uM after 24 hrs by TEM analysis; assay type: functional, organism-based
Leishmania donovani [16] = assay: Antileishmanial activity against promastigote stage of Leishmania donovani MHOM/IN/80/Dd8 harboring luciferase reporter gene at 100 uM after 48 hrs by Steady-Glo luminescence assay relative to control; assay type: functional; conditions: MHOM/IN/80/Dd8, 48 h
[17] = Toxicity in golden hamster infected with Leishmania donovani amastigotes assessed as reduction in serum AST level at 50 mg/kg , ip and measured after 10 weeks post infection (reference value: 113 U/L); assay type: organism-based, Mesocricetus auratus; conditions: in vivo, 1680 h
[18] = Cytotoxicity against African green monkey Vero cells assessed as cell viability at 25 uM by MTT assay relative to control; assay type: cell-based; conditions: chlorocebus sabaeus, read-out: Activity
[19] = Selectivity index, ratio of CC50 for mouse J774 cells to IC50 for antileishmanial activity against Leishmania donovani MHOM/IN/80/Dd8 amastigotes harboring luciferase reporter gene; assay type: toxicity; conditions: read-out: Ratio CC50/IC50
Leishmania donovani [20] = assay: Antileishmanial activity against Leishmania donovani promastigotes infected in BALB/c mouse assessed as inhibition in parasite burden in liver at 100 mg/kg, ip administered for 7 days starting at 15 days post-infection and measured after 1 week post last dose Giemsa staining-based assay relative to control; assay type: functional
Leishmania donovani [21] = assay: Induction of membrane depolarization in Leishmania donovani promastigotes assessed as increase in fluorescence at IC50 by DiBAC4 dye based flow cytometry analysis; assay type: functional, organism-based; conditions: TDE = time-dependent effect
Leishmania donovani [22] = assay: Antileishmanial activity against Leishmania donovani amastigotes infected in golden hamster assessed as reduction in parasite burden in spleen at 50 mg/kg, ip administered on alternative days for 4 weeks starting at 4 weeks post-infection and measured after 2 week post last dose Giemsa staining-based assay relative to control; assay type: functional
Leishmania donovani [23] = assay: Antileishmanial activity against Leishmania donovani MHOM/IN/80/Dd8 promastigotes harboring luciferase reporter gene assessed as inhibition of viability at 3.12 to 100 uM after 24 to 72 hrs by MTT assay relative to control; assay type: functional
Leishmania donovani [24] = assay: Induction of plasma membrane permeabilization in Leishmania donovani promastigotes assessed as increase in fluorescence at 50 uM after 2 hrs by SYTOX green-based flow cytometry analysis relative to control; assay type: functional
Leishmania donovani [25] = assay: Antileishmanial activity against Leishmania donovani MHOM/IN/80/Dd8 amastigotes harboring luciferase reporter gene infected in mouse J774 cells at 25 uM after 72 hrs by Steady-Glo luminescence assay relative to control; assay type: functional; conditions: MHOM/IN/80/Dd8, J774, 72 h
Leishmania donovani [26] = assay: Induction of ROS generation in Leishmania donovani promastigotes at 50 uM after 48 hrs by H2DCFDA probe based flow cytometry (reference value: 1.97%); assay type: functional
J774 [27] = assay: Immunostimulatory activity in mouse J774 cells infected with Leishmania donovani promastigotes assessed as increase in TNF-alpha cytokine production at 50 uM after 48 hrs by ELISA; assay type: functional, cell-based
Leishmania donovani [28] = assay: Inhibition of ubiquinol cytochrome c reductase in Leishmania donovani promastigotes mitochondria at 8.1 to 50 uM using decylubiquinol as substrate in presence of cytochrome c
Leishmania donovani [29] = assay: Induction of mitochondrial dysfunction in Leishmania donovani promastigotes assessed as reduction in mitochondrial membrane potential at 50 uM after 48 hrs by JC-1 staining-based flow cytometric analysis (reference value: 7.73%); assay type: functional; set-up: scale not given: the % may be the effect or the level left
[30] = Cytotoxicity against BALB/c mouse splenocytes assessed as cell viability at 200 uM after 72 hrs by MTT assay relative to control; assay type: cell-based, Splenocyte; conditions: read-out: Activity
J774 [31] = assay: Immunostimulatory activity in mouse J774 cells infected with Leishmania donovani promastigotes assessed as reduction in IL-10 cytokine production at 50 uM after 48 hrs by ELISA; assay type: functional, cell-based
[32] = Cytotoxicity against African green monkey Vero cells assessed as cell viability at 100 uM by MTT assay relative to control; assay type: cell-based; conditions: chlorocebus sabaeus, read-out: Activity
Leishmania donovani [33] = assay: Induction of apoptosis in Leishmania donovani promastigotes assessed as late apoptotic cells at 50 uM after 48 hrs by Annexin-V/propidium iodide staining based flow cytometric method (reference value: 0.59%); assay type: functional

Work on `CCOC(=O)C(C(=O)c1ccc(OC)cc1)C(NC(C)=O)c1cccc2ccccc12` (centres undefined) yielded an Activity (Leishmania donovani [1]) of 30.3%, an inhibition in vivo at 200 mg/kg (Leishmania donovani [2]) of 93.1% and an Activity [3] of 166 IU/L. The IC50 (Leishmania donovani [4]) was 16.9 µM, the inhibition in vivo at 100 mg/kg (Leishmania donovani [5]) was 92.8% and the Cmax [6] was 2080 ng/mL. The viability at 50 µM [7] was 98.7%, the Activity [8] was “Non-Toxic” and the Activity [9] was 17 to 177 IU/L. The Activity (Mus musculus) was “inactive”, the Activity (Leishmania donovani [10]) was 8.62% and the selectivity ratio [11] was 25.7. For the same compound, the half-life [12] was 5.22 h, the Tmax [13] was 0.25 h and the Activity (Leishmania donovani [14]) was 19.52%. The Activity (Leishmania donovani [15]) was “Active”, the inhibition at 100 µM (Leishmania donovani [16]) was 97.1% and the Activity [17] was 92 IU/L. The viability at 25 µM [18] was 99.2%, the selectivity ratio [19] was 23.4 and the inhibition in vivo at 100 mg/kg (Leishmania donovani [20]) was 92.1%. For the same compound, the Activity (Leishmania donovani [21]) was “Tde”, the inhibition in vivo at 50 mg/kg (Leishmania donovani [22]) was 90.4% and the “inhibition (INH)” value (Leishmania donovani [23]) was 95.4%. For the same compound, the Activity (Leishmania donovani [24]) was 3.1%, the inhibition at 25 µM (Leishmania donovani [25]) was 64.1% and the Activity (Leishmania donovani [26]) was 65.74%. For the same compound, the Activity (J774 [27]) was “inactive”, the inhibition (Leishmania donovani [28]) was “Active” and the Activity (Leishmania donovani [29]) was 67.97%. For the same compound, the viability at 72 h, 200 µM [30] was over 84.3%, the Activity (J774 [31]) was “inactive” and the viability at 100 µM [32] was 95.5%. For the same compound, the Activity (Leishmania donovani [33]) was 2.65%.
